Data: PubChem BioAssay (NCI)
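Where inhibition never reached the appropriate level, the endpoint shown equals the highest concentration tested. Otherwise, values were interpolated linearly from a five-concentration, 48-hour dose response in 96-well plates. GI50: concentration for 50% inhibition of growth. At the TGI there is no net growth.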

Assays:
Experiment in all cases: DTP human tumour cell line panel, 48 h
[1] = system: SR leukemia
[2] = system: SK-MEL-2 melanoma
[3] = system: SW-620 colon
[4] = system: U251 CNS
[5] = system: M14 melanoma
[6] = system: OVCAR-5 ovarian
[7] = system: HCC-2998 colon
[8] = system: RXF 393 renal
[9] = system: MOLT-4 leukemia
[10] = system: NCI-H23 lung
[11] = system: IGROV1 ovarian
[12] = system: OVCAR-3 ovarian
[13] = system: A498 renal
[14] = system: A549 NSCLC
[15] = system: NCI-H226 lung
[16] = system: MDA-MB-231 breast
[17] = system: UO-31 renal
[18] = system: K-562 leukemia
[19] = system: COLO 205 colon
[20] = system: UACC-257 melanoma
[21] = system: TK-10 renal
[22] = system: MCF7 breast
[23] = system: OVCAR-8 ovarian
[24] = system: ACHN renal
[25] = system: LOX IMVI melanoma
[26] = system: HCT-15 colon
[27] = system: HOP-62 NSCLC
[28] = system: RPMI-8226 leukemia
[29] = system: UACC-62 melanoma
[30] = system: HCT-116 colon
[31] = system: SK-OV-3 ovarian
[32] = system: HT29 colon
[33] = system: SF-268 CNS
[34] = system: CCRF-CEM leukemia
[35] = system: HOP-92 NSCLC
[36] = system: 786-0 renal
[37] = system: SF-295 CNS
[38] = system: CAKI-1 renal
[39] = system: MDA-MB-435
[40] = system: NCI/ADR-RES ovarian
[41] = system: SNB-75 CNS
[42] = system: HS 578T breast
[43] = system: SK-MEL-28 melanoma
[44] = system: SF-539 CNS
[45] = system: SNB-19 CNS
[46] = system: NCI-H522 lung
[47] = system: T-47D breast
[48] = system: SK-MEL-5 melanoma
[49] = system: NCI-H460 lung
[50] = system: SN12C renal
[51] = system: EKVX NSCLC
[52] = system: HL-60(TB) leukemia
[53] = system: PC-3 prostate
[54] = system: DU-145 prostate
[55] = system: KM12 colon
[56] = system: BT-549 breast
[57] = system: OVCAR-4 ovarian

Nc1ccc2c(c1)Cc1cc(Cl)c(Cl)cc1-2
GI50 [1]: 26.9 µM
TGI [1]: > 100 µM
GI50 [2]: > 100 µM
TGI [2]: > 100 µM
GI50 [3]: 5.43 µM
TGI [3]: > 100 µM
GI50 [4]: 5.56 µM
TGI [4]: > 100 µM
GI50 [5]: 3.55 µM
TGI [5]: > 100 µM
GI50 [6]: > 100 µM
TGI [6]: > 100 µM
GI50 [7]: 9.19 µM
TGI [7]: > 100 µM
GI50 [8]: 6.07 µM
TGI [8]: > 100 µM
GI50 [9]: > 100 µM
TGI [9]: > 100 µM
GI50 [10]: > 100 µM
TGI [10]: > 100 µM
GI50 [11]: 17.7 µM
TGI [11]: > 100 µM
GI50 [12]: 3.17 µM
TGI [12]: 87.8 µM
GI50 [13]: 4.78 µM
TGI [13]: > 100 µM
GI50 [14]: 7.72 µM
TGI [14]: > 100 µM
GI50 [15]: > 100 µM
TGI [15]: > 100 µM
GI50 [16]: 6.39 µM
TGI [16]: > 100 µM
GI50 [17]: 6.01 µM
TGI [17]: > 100 µM
GI50 [18]: > 100 µM
TGI [18]: > 100 µM
GI50 [19]: 22.2 µM
TGI [19]: > 100 µM
GI50 [20]: > 100 µM
TGI [20]: > 100 µM
GI50 [21]: > 100 µM
TGI [21]: > 100 µM
GI50 [22]: 0.562 µM
TGI [22]: > 100 µM
GI50 [23]: > 100 µM
TGI [23]: > 100 µM
GI50 [24]: 7.06 µM
TGI [24]: > 100 µM
GI50 [25]: 65.6 µM
TGI [25]: > 100 µM
GI50 [26]: 6.22 µM
TGI [26]: > 100 µM
GI50 [27]: > 100 µM
TGI [27]: > 100 µM
GI50 [28]: 57.6 µM
TGI [28]: > 100 µM
GI50 [29]: 12.8 µM
TGI [29]: > 100 µM
GI50 [30]: 6.81 µM
TGI [30]: > 100 µM
GI50 [31]: 8.03 µM
TGI [31]: > 100 µM
GI50 [32]: > 100 µM
TGI [32]: > 100 µM
GI50 [33]: > 100 µM
TGI [33]: > 100 µM
GI50 [34]: 7.73 µM
TGI [34]: > 100 µM
GI50 [35]: 97.9 µM
TGI [35]: > 100 µM
GI50 [36]: > 100 µM
TGI [36]: > 100 µM
GI50 [37]: 2.25 µM
TGI [37]: 7.15 µM
GI50 [38]: 3.76 µM
TGI [38]: > 100 µM
GI50 [39]: 1.77 µM
TGI [39]: 4.51 µM
GI50 [40]: 62.2 µM
TGI [40]: > 100 µM
GI50 [41]: 67.8 µM
TGI [41]: > 100 µM
GI50 [42]: 5.79 µM
TGI [42]: > 100 µM
GI50 [43]: > 100 µM
TGI [43]: > 100 µM
GI50 [44]: 57.3 µM
TGI [44]: > 100 µM
GI50 [45]: 5.96 µM
TGI [45]: > 100 µM
GI50 [46]: > 100 µM
TGI [46]: > 100 µM
GI50 [47]: > 100 µM
TGI [47]: > 100 µM
GI50 [48]: 8.17 µM
TGI [48]: > 100 µM
GI50 [49]: 5.12 µM
TGI [49]: > 100 µM
GI50 [50]: 11.9 µM
TGI [50]: > 100 µM
GI50 [51]: 1.94 µM
TGI [51]: 8.82 µM
GI50 [52]: 55 µM
TGI [52]: > 100 µM
GI50 [53]: > 100 µM
TGI [53]: > 100 µM
GI50 [54]: 6.24 µM
TGI [54]: > 100 µM
GI50 [55]: 7.05 µM
TGI [55]: > 100 µM
GI50 [56]: > 100 µM
TGI [56]: > 100 µM
GI50 [57]: > 100 µM
TGI [57]: > 100 µM
